The values that follow come from paper PMC8002983, “Mammalian Arginase Inhibitory Activity of Methanolic Extracts and Isolated Compounds from Cyperus Species” (Molecules, 2021).

The structures appear in SMILES notation. Read-outs that look alike come from different tables or passages of the source.

Test [1] deals with T1, purified liver bovine arginase (b-ARGI) (Bos taurus, UniProt Q2KJ64).
T1 construct: purified liver bovine arginase 1, which was purchased from MP Biomedicals; purchased MP Biomedicals (Illkirch-Graffenstaden, France); host or cells: bovine liver (tissue-purified)
T1 sequence (Q2KJ64 1-322): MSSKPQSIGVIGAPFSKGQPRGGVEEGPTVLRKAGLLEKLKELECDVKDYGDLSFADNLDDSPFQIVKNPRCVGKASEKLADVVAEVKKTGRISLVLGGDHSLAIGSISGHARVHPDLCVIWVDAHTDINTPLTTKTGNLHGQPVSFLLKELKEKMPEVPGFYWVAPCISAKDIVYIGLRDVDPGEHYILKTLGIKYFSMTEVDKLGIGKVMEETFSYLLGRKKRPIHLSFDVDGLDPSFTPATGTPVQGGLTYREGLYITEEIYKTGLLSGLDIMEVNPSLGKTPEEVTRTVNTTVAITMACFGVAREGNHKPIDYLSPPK
Kind of test: in vitro arginase inhibitory assay (colorimetric urea detection). The format is biochemical. The settings on record: means ± SEM, three distinct experiments in triplicate, read-out: Arginase Inhibition, IC50. The procedure: The amount of urea produced by the hydrolysis of L-arginine by arginase (purified liver bovine arginase (b-ARGI)) can be detected using a color reactant (α-isonitrosopropiophenone) followed by a colorimetric assay, as described below. In each well of a 96-well microplate, the solutions were added in the following order: (1) buffer containing Tris-HCl (50 mM, pH 7.5) and 0.1% of bovine serum albumin (TBSA buffer) (10 μL), with or without (control) arginase (0.025 U/μL); (2) Tris-HCl solution (50 mM, pH 7.5) containing 10 mM MnCl2 as a cofactor (30 μL); (3) a solution containing an inhibitor or its solvent (as a control) (10 μL); (4) a solution of L-arginine (pH 9.7, 0.05 M) (20 μL). The microplate was incubated for 60 min in a 37 °C water bath after covering with a plastic sealing film. The addition of 120 μL of H2SO4/H3PO4/H2O (1:3:7) quenched the reaction. The microplate was left on ice for 5 min. Thereafter, 10 μL of α-isonitrosopropiophenone (5% in absolute ethanol (EtOH)) was added, and the microplate was heated in an oven at 100 °C for 45 min, after covering with an aluminum sealing film. As the colored product is photosensitive, the microplate was kept in the dark until reading. After 5 min of centrifugation and cooling for another 10 min, the microplate was shaken for 2 min and the absorbance was read at 550 nm and 25 °C using a spectrophotometer (Synergy HT BioTeck). The level of arginase activity was expressed as relative to the “100% arginase activity”. The experiment was repeated three times with each microplate under similar experimental conditions (e.g., various inhibitor concentrations.)
The percentage of arginase inhibitory activity and IC50 values was evaluated as previously described. A stock solution (70 mM) was prepared in DMSO and stored at −26 °C for each compound. These stock solutions were extemporaneously and successively diluted in ultrapure H2O to afford the following concentrations: 7000, 2100, 700, 210, 70, 21, 7, 2.1, and 0.7 μM, corresponding to final concentrations in the wells of 1000, 300, 100, 30, 10, 3, 1, 0.3, 0.1 μM, respectively. For a first screening, compounds were tested at final concentrations of 10 and 100 μM. Each solution was incubated with arginase for 1 h, as described above. The percentage of arginase inhibition was calculated by conversion of the resulting absorbance (relative to the absorbance of controls with only solvent (“100% arginase activity”)) and plotted on a semilogarithmic scale. The IC50 values were estimated by nonlinear sigmoidal curve-fitting by using Prism (GraphPad Software, version 5.0.3).

Test [2] relates to aortic rings from adjuvant induced-arthritis rats. Kind of test: ex vivo acetylcholine-induced relaxation in isolated aortic rings from arthritic rats. Details: species or system rat. The settings on record: day 33 post-immunization, phenylephrine 10^−6 mol/L preconstriction, nor-NOHA 10^−4 mol/L, extract 2.6 10^−3 mg/mL. The procedure:
This part of the experiment was performed on 15 male Lewis rats (6 weeks old), purchased from JanvierLabs (Le Genest Saint Isle, France). The experimental procedures were approved by the local ethics committee for animal experimentation No. 2015/001-CD/5PR of Franche-Comté University (Besançon, France) and complied with the “Animal Research: Reporting In Vivo Experiments” (ARRIVE) guidelines.
Arthritis was induced by a single intradermal injection to the tail of 120 μL of 10 mg·ml^−1 heat-killed Mycobacterium butyricum suspended in Freund’s incomplete adjuvant, as described previously. Non-arthritic age-matched rats were used as controls and received saline at the base of the tail.
At 33 days post-immunization, corresponding to the acute phase of arthritis, the rats were anesthetized using sodium pentobarbital 60 mg/kg (Ceva Santé Animale, France). The descending thoracic aorta was excised and carefully cleaned for vascular study as previously described. […] To assess the effect of arginase inhibitors, experiments were repeated in the presence of nor-NOHA (10^−4 M) and C. thunbergii extract (at EC50 obtained by in vitro test), respectively.

Test [3] concerns the target T1, purified liver bovine arginase (b-ARGI). Also noted: method as in PMID 27776374, PMID 28837342. The note with it: mammalian arginase; read-out: Arginase inhibition IC50 of natural inhibitor piceatannol; cited from earlier work.

For orientation: IC50 means the concentration at which inhibition is half-maximal. For the compound `Oc1ccc(/C=C/c2cc(O)cc3c2[C@H](c2cc(O)cc(O)c2)[C@@H](c2ccc(O)c(O)c2)O3)cc1` (stereo in doubt) [Compound 4, trans-scirpusin A], in test [1], the IC50 was 17.6 ± 2.2 µM.
On to `N=C(NO)NCC[C@H](N)C(=O)O` [nor-NOHA, Nω-hydroxy-nor-L-arginine], for which the “effect on depressed Ach-induced endothelium-dependent relaxation (endothelial dysfunction)” value in test [2] is given as “relaxation was higher”.
As for `COc1cc2c3c(c1)O[C@H](C)CC3(C)c1cc3oc(OC)ccc-3c1O2` (stereo partly drawn) [Compound 2, thunbergin B], in test [1], the IC50 is 74.1 ± 3.7 µM.
Still for that read-out and setting: next, `O=c1cc(-c2ccc(O)c(O)c2)oc2cc(O)cc(O)c12` [Compound 7, luteolin]: 60.6 ± 3.1 µM.
Still for that read-out and setting: next, `O=C1/C(=C/c2ccc(O)c(O)c2)Oc2cc(O)cc(O)c21` [Compound 5, aureusidin]: 57.1 ± 2.3 µM; `COc1cc2c3c(cc(O)cc3c1)C(C)(C)c1c-2ccc(OC)c1O` [Compound 1, 4,6-dihydroxy-12-dimethyl-3,10-dimethoxybenzophenanthrene]: 28.8 ± 2.5 µM.
For the compound `Oc1cc(O)cc(/C=C/c2ccc(O)c(O)c2)c1` [piceatannol], the concentration for half-maximal inhibition (IC50) in test [3] is 12.6 µM.
Regarding `Oc1cc(O)cc(-c2c(-c3ccc(O)c(O)c3)oc3cc4oc(-c5ccc(O)c(O)c5)c(-c5cc(O)cc(O)c5)c4c(/C=C/c4ccccc4)c23)c1` [Compound 6, trans-cyperusphenol A], the IC50 in test [1] is 19.4 ± 1.3 µM.
Take `Oc1ccc(/C=C/c2cc(O)cc(O)c2)cc1` [Compound 3, trans-resveratrol]: the IC50 in test [1] was 105 ± 4.1 µM.
